Patent EP0167385B1, “Antiviral compounds, treatment and formulations” (THE WELLCOME FOUNDATION LIMITED, priority 1984, dated 1986)
Read-outs that look alike come from different tables or passages of the source.

Assays:
human CMV = assay: plaque reduction assay in human foreskin fibroblast monolayers; format: cell-based; settings: for EC50: Human betaherpesvirus 5, Fibroblast, 192 h, Human Foreskin Fibroblasts, 8 days, read-out: ED₅₀
Experimental: Confluent monolayers of human diploid fibroblast cells (i.e., human foreskin fibroblast cells) were infected with 200-300 µL of a suspension containing 50-100 human CMV infectious virions per culture well and allowed to incubate for 90 minutes at 37 degrees C in a CO₂ incubator. Unadsorbed virus was then removed by aspiration and appropriate concentrations of 1-[2-hydroxy-1-(hydroxymethyl)ethoxymethyl] cytosine were added in Eagle's Minimal Essential Media containing 2% fetal calf serum in an agarose overlay (0.6%). The assay plates were incubated at 37 degrees C in a CO₂ incubator for 8 days to allow plaque development. The monolayers were then fixed with 10% formalin in phosphate buffered saline and stained wth 0.8% crystal violet. The plaques were counted at 3x magnification using a Bausch and Lomb dissecting microscope, and the data were analysed by SAS Probit (SAS Institute, Inc., Cary, N.C., U.S.A.) to give the following results: […]

Epstein-Barr Virus (EBV) = assay: EBV-specific cRNA-DNA hybridization, EBV genome equivalents in P3HR-1 cells; format: cell-based
Experimental: 1-[2-Hydroxy-1-(hydroxymethyl)ethoxymethyl]cytosine was assayed for activity against Epstein-Barr Virus (EBV) using an adaptaion of the procedure described in Nature New Biology, 233, 103-106 (1971). This technique, employing an EBV-specific cRNA-DNA hybridization on filter membranes, detects the amount of EBV genome equivalents produced in the virus-producing cell lines. In this assay the EBV-producing cell line […]-1 (ATCC HTB 62) was exposed to various concentrations of 1-[2-hydroxy-1-(hydroxymethyl)-ethoxymethyl]cytosine for 14 days and EBV genome equivalents per cell were then determined to give an ED50 of approximately 0.05 μM.

VZV = assay: antiviral test against VZV; settings: antiviral tests, general statement
HSV-1 = settings: concentrations up to 100 ug; Ogilvy et al, Nucleosides and Nucleotides (1983); cited from earlier work
[1] = toxicity in mice after administration by gavage; format: in vivo; settings: 44.5 mg per kg by gavage, suspension in 5% Tween 80, 28 male CD-1 mice
Experimental: The compound of formula (II) was administered to 28 male CD-1 mice by gavage. The dose was 44.5 mg per kg of body weight and was in suspension in 5% Tween 80 at a concentration of 5 mg/ml.

[2] = urine levels after oral administration, mice; format: in vivo; settings: compared with oral administration of the compound of formula (I) itself
[3] = urine levels after oral administration, rats; format: in vivo; settings: compared with oral administration of the compound of formula (I) itself
[4] = antiviral tests, general statement

SMILES	EC50 (human CMV; Virus Strain ATCC VR-538 (strain AD169)) [nM]	EC50 (human CMV; Virus Strain Kerr) [nM]	activity against CMV (human CMV; [4])	activity against EBV (Epstein-Barr Virus (EBV); [4])	EC50 (Epstein-Barr Virus (EBV); human gammaherpesvirus 4, 336 h, P3HR-1 (ATCC HTB 62) cells exposed for 14 days, read-out: ED₅₀ (EBV genome equivalents per cell)) [nM]	activity against VZV (VZV)	activity against HSV-1 (HSV-1)	signs of toxicity [1]	body fluid levels of the compound of formula (I), as demonstrated by urine levels [2]	body fluid levels of the compound of formula (I), as demonstrated by urine levels [3]
Nc1ccn(COC(CO)CO)c(=O)n1 [1-[2-Hydroxy-1-(hydroxymethyl)ethoxymethyl]cytosine]	3700 ± 700	1900 ± 200	surprisingly good activity	surprisingly good activity	~50	surprisingly good activity	no activity			
CC(C)(C)C(=O)OCC(COC(=O)C(C)(C)C)OCn1ccc(N)nc1=O [compound of formula (II), 2-[(4-Amino-1,2-dihydro-2-oxo-1-pyrimidinyl)methoxy]-1,3-propanediyl Dipivalate]								No signs of toxicity were observed	substantially higher	substantially higher
